Data as given in patent publication US11554105B2, “Combinations of artemisinins, BCL-2 inhibitors, and kinase inhibitors for cancer treatment” (UNIVERSITY OF MARYLAND, BALTIMORE, priority 2018, dated 2023).
“Also recorded” adds a separate entry of the source. Like-named read-outs stand apart in the source and are kept apart here. Marks after values point to notes of the source that are not given here.

Tests used:
[1] = system: MV4:11 or MOLM14 AML xenografts; test: Luc-labelled AML xenografts treated with VEN, SOR and ART838 or ART631 (5-cycle MTD regimen); assay type: in vivo, NRG mice; settings: two AML xenograft models; single agents and in combination with VEN+SOR
Source text: FIG. 25A-25C. […] FIG. 25A) MTD cyclic drug treatment schema.
Outcome metrics included 1) maximal in vivo antileukemic efficacy 3 days (d) after completion of the 1st treatment cycle (FIG. 25B); 2) survival (FIG. 25C); and 3) toxicity.

[2] = PO qd×5 at MTD; 15 mg/kg ART631, 50 mg/kg ART838
Method: (§1) FIG. 24. Concentration-time profile for 2C-ARTs with PK parameters.
Preliminary pharmacokinetic (PK) studies were designed to compare the PK of ART631 at steady-state at its maximum tolerated dose (MTD) (FIG. 24). […] ART631 plasma concentrations exceeded 50 nM for ˜8 h.

human AML cell lines = test: In vitro efficacies of artemisinin derivatives against human AML cell lines; assay type: cell-based
Method: Cell lines were seeded in 96-well tissue culture plates at 10^4 cells per well (myeloid leukemia lines) or 2×10^4 cells per well (lymphoid leukemia lines) in culture medium, followed by addition of drugs at the indicated concentrations. 2-4 wells per plate containing media-only were included for background subtraction. Peripheral wells were filled with sterile water to minimize the effects of evaporation.
A novel trioxane dimer allyloxime-631 (ART631) has been designed to further extend in vivo T1/2 without sacrificing antimalarial activity.

[3] = system: mitochondrial superoxide in MOLM14 cells; test: Mitochondrial superoxide (MitoSOX Red, flow cytometry); assay type: cell-based, human; settings: 16 h, 2.25× approximate 48 h IC50, MitoSox MFI
Method: FIGS. 4A-4D. Effects of ART-838- and AS-containing drug combinations on MOLM14 growth and superoxide generation. […] CIs were computed as described above. CI<1 indicates synergy, CI=1, additivity, CI>1, antagonism. […] Cells were then loaded with 5 μM MitoSox for 30 min, washed, and analyzed by flow cytometry for MitoSox fluorescence (indicating mitochondrial superoxide) in the FL2 channel. Mean fluorescence intensity (MFI) was normalized to that of vehicle control (0.5% DMSO) with no pretreatment (100%, lower dotted lines). Upper dotted lines show MFI of ART-838- or AS-treated cells. Error bars represent the SEM of three independent experiments.
Cells were pretreated with NAC, Tiron, DFO, or vehicle then treated with AS, ART-838, or vehicle, as described above, then following a 16-hour drug treatment, cells were loaded with 5 μM MitoSOX Red (Invitrogen, Carlsbad, Calif.) for 30 minutes at 37° C. with 5% CO2, then analyzed using the FL2 channel of an Accuri C6 flow cytometer.
As both ART-838 and AS increased mitochondrial superoxide, and many antineoplastic drugs induce ROS generation, mitochondrial superoxide levels of MOLM14 cells treated with each of the above six antileukemic drugs were evaluated, alone and in combination with ART-838 or AS. All six drugs induced mitochondrial superoxide, although to a much lesser extent than did ART-838 (FIG. 4B) or AS (FIG. 4D).

in vivo = test: in vivo
Source text: as §1
FIG. 25A-25C. […] NOD-Rag1^nullIL2rg^null (NRG) mice were transplanted IV with Luc-labelled MV4; 11 cells on d10. […] FIG. 25A) MTD cyclic drug treatment schema.

[4] = system: human leukemia cell lines; settings: more potent than AS; cited from earlier work
[5] = cited from earlier work
KOPN8 = test: Kinase inhibitor drug combination screen (MTS, Bliss-independence analysis); assay type: cell-based, human; settings: Drug 1 combined with ART-838 (Drug 2) at its approximate IC50, 48 h, average over seven Drug 1 concentrations
[6] = system: MOLM14, KOPN8 and RCH-ACV cell lines; test: Kinase inhibitor drug combination screen, summary over the three cell lines; settings: >10% growth inhibition over the Bliss prediction; of three cell lines
Method: (§2) Plates (3×384-well per set) contained 7 graded concentrations of each drug at 2× final concentration in culture media in 25 μl/well. […] Cells were plated such that each well contained 2500 cells (MOLM14) or 5000 cells (KOPN8 and RCH-ACV). […] Each plate contained two positive control wells used for background subtraction. Each plate also contained 45 wells without any drug. The background-subtracted absorbance for each well was normalized to the average of the no-drug wells from the corresponding vehicle plate.
(§3) Hits were ranked by the observed inhibition over the Bliss independence prediction.
(§4) Combinations with positive values for this Bliss difference were considered synergistic, values near zero, additive, and negative values, antagonistic.

RCH-ACV = test: Kinase inhibitor drug combination screen (MTS, Bliss-independence analysis); settings: Drug 1 combined with AS (Drug 2) at its approximate IC50, 48 h, average over seven Drug 1 concentrations
Method: as §2, §3, §4

Compound	tolerability and antileukemic efficacy, ART631 compared with ART838 [1]	exposure, oral ART631 compared with ART838 [2]	IC50 (human AML cell lines; median over the human AML cell lines tested (11 for AS and ART838, 4 for ART631), read-out: IC50 median) [µM]	IC50 (human AML cell lines; range over the human AML cell lines tested (11 for AS and ART838, 4 for ART631), read-out: IC50 range) [µM]	mitochondrial superoxide generation, drug alone [3]	previously established MTD, PO×5 d schedule (in vivo; 5 d-on/9 d-off, gavage) [mg/kg/day]	MTD regimen, repeated dose (in vivo; qd×5 PO) [mg/kg]	in vitro potency relative to AS [4] [fold]	in vivo T1/2 [5] [h]	fractional inhibition over Bliss prediction (KOPN8)	No. Cell Lines synergistically inhibited by drug 1 combined with AS and/or ART-838 [6]	fractional inhibition over Bliss prediction (RCH-ACV)
C[C@@H]1CCC2[C@@H](C)[C@@H](CC(COP(=O)(Oc3ccccc3)Oc3ccccc3)C[C@H]3O[C@@H]4O[C@@]5(C)CCC6[C@H](C)CCC([C@H]3C)[C@]64OO5)O[C@@H]3O[C@@]4(C)CCC1[C@@]23OO4 (stereo partly drawn) [ART-838, artemisinin-derived trioxane diphenylphosphate dimer 838]	closely similar tolerability and antileukemic efficacy	similar	0.038	0.01 to 0.547	induced superoxide to greater levels than AS; also recorded: induced mitochondrial superoxide generation	50	50	88	3			
COc1cc(Oc2ccnc3cc(OC)c(OC)cc23)ccc1NC(=O)NC(C)c1nccs1 (stereo not drawn) [KI20227]										KOPN8 (0.12)	2/3**	RCH-ACV (0.14)
